From ChEMBL document CHEMBL3991601, “The target landscape of clinical kinase drugs” (Science, 2017) come the findings set out here.

The source made the active and inactive calls.

Experiment [1] has as its target Protein kinase C beta type (Homo sapiens, UniProt P05771).
Experiment [2] concerns the target T1, Acyl-CoA dehydrogenase family member 10 (Homo sapiens, UniProt Q6JQN1).
T1 sequence (Q6JQN1 whole entry): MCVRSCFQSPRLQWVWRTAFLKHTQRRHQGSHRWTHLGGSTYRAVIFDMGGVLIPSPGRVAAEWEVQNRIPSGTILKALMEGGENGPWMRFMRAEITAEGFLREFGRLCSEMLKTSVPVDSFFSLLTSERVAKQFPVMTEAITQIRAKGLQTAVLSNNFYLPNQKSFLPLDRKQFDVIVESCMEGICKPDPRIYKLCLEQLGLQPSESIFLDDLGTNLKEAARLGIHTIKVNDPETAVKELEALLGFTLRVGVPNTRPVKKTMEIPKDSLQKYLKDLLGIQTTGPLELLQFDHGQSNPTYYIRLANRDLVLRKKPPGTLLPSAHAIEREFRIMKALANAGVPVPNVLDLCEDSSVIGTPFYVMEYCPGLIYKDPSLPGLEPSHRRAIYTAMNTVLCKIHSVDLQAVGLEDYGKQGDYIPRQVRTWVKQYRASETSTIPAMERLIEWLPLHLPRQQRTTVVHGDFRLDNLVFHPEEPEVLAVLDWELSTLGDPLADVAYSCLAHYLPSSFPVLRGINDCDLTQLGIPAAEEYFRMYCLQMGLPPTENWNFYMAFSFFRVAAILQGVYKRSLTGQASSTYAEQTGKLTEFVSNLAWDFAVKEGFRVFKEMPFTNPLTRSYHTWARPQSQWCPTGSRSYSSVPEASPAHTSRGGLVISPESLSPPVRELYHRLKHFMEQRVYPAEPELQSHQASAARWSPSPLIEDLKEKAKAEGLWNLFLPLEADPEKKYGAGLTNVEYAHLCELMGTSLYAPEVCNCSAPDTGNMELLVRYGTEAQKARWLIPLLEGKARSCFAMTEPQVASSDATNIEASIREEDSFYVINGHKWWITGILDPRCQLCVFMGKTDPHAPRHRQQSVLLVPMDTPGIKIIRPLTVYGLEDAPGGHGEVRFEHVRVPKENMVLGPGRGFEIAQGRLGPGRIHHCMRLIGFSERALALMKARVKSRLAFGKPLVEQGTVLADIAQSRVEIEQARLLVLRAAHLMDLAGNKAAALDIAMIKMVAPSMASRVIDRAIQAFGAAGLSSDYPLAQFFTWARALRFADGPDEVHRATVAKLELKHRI

Experiment [3] has as its target Protein kinase C delta type (Homo sapiens, UniProt Q05655).
Experiment [4] has as its target T2, Ephrin type-B receptor 4 (Homo sapiens, UniProt P54760).
T2 sequence (P54760 whole entry): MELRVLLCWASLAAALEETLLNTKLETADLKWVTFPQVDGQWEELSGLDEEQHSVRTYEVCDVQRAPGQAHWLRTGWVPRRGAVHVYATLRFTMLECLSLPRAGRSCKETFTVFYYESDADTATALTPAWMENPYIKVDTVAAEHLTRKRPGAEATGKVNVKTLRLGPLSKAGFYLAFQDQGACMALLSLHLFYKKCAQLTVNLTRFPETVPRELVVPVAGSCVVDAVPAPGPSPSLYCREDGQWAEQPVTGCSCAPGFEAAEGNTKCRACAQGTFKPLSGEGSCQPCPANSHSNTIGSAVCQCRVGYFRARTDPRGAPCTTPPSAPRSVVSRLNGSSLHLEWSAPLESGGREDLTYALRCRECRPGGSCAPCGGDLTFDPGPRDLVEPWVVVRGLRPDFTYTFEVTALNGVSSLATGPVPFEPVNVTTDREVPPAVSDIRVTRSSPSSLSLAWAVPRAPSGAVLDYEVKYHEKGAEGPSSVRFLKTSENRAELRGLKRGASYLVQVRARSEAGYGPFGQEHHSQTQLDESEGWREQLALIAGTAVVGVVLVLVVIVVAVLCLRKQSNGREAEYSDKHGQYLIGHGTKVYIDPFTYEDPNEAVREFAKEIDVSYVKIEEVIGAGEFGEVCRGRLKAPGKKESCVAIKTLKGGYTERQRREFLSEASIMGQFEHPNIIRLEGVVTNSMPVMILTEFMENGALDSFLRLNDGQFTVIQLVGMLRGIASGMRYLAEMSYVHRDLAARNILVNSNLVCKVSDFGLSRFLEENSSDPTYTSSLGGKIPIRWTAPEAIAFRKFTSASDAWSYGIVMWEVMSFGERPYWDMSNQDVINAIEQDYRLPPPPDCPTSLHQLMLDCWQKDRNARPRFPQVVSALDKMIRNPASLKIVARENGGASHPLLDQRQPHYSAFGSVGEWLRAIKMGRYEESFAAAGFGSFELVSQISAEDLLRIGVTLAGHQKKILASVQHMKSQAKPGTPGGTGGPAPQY

For experiment [5], the target named is DNA topoisomerase 2-beta (Homo sapiens, UniProt Q02880).
For experiment [6], the target named is cAMP-dependent protein kinase catalytic subunit gamma (Homo sapiens, UniProt P22612).
Also: in the data inactive means no Kd found up to 30 µM.

Chain of Protein kinase C delta type (Q05655 whole entry): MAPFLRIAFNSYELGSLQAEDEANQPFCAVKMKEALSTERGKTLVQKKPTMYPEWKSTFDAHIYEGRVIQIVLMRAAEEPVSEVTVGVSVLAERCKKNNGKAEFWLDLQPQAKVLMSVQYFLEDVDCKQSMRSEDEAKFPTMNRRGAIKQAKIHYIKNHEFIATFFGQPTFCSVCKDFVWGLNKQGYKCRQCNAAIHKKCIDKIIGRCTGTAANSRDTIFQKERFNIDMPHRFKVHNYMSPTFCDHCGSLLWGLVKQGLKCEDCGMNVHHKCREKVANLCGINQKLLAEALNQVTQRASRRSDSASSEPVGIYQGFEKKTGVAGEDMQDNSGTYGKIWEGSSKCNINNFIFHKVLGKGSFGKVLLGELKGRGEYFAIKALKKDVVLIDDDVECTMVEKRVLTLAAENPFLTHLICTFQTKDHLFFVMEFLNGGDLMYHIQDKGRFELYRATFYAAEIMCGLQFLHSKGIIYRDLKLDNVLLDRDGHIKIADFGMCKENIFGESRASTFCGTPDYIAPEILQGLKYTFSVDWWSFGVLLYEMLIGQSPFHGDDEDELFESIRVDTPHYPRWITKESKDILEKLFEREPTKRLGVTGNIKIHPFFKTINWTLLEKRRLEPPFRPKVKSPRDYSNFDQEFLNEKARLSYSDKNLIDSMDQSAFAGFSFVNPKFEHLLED
Chain of DNA topoisomerase 2-beta (Q02880 whole entry): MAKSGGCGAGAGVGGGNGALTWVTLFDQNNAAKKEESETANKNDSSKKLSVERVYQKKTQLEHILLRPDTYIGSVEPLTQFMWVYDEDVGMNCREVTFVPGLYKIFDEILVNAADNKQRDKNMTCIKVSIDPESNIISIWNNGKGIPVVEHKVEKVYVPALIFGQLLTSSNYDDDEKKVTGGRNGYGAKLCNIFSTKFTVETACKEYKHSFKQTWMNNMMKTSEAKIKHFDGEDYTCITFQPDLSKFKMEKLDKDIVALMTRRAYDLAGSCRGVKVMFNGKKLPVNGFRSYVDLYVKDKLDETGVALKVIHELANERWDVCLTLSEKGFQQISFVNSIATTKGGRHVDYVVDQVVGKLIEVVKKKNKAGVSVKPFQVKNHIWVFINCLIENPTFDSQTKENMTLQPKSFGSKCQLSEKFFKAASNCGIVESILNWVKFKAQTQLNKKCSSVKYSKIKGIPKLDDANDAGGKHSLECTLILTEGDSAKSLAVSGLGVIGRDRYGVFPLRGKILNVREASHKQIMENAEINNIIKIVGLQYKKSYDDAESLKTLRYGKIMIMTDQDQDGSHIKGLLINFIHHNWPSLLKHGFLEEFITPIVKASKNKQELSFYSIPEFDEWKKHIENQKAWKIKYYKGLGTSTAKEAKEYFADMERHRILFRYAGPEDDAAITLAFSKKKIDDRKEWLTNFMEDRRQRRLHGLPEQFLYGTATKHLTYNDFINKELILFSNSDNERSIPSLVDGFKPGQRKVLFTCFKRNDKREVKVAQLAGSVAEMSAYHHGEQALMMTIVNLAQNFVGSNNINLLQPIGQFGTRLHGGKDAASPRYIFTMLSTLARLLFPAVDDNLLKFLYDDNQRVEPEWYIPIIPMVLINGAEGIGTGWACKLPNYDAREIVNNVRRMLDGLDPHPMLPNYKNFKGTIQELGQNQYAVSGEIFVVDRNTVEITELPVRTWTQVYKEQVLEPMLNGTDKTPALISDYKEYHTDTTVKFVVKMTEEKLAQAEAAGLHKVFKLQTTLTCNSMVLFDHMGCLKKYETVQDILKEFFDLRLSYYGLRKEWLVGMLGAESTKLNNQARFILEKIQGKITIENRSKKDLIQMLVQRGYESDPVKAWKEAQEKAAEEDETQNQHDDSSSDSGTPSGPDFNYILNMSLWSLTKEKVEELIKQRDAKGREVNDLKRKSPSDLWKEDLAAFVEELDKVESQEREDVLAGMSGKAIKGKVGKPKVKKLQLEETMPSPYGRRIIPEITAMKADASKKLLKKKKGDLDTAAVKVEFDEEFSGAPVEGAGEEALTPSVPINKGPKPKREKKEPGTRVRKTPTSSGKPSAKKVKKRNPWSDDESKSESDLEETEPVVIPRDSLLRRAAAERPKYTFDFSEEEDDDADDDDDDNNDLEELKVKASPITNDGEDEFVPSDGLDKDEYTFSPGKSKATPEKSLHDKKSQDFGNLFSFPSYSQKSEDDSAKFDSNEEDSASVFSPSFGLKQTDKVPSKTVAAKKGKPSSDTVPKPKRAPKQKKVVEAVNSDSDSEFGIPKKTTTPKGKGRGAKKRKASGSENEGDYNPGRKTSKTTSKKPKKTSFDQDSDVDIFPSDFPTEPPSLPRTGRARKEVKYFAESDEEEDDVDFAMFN
Chain of cAMP-dependent protein kinase catalytic subunit gamma (P22612 whole entry): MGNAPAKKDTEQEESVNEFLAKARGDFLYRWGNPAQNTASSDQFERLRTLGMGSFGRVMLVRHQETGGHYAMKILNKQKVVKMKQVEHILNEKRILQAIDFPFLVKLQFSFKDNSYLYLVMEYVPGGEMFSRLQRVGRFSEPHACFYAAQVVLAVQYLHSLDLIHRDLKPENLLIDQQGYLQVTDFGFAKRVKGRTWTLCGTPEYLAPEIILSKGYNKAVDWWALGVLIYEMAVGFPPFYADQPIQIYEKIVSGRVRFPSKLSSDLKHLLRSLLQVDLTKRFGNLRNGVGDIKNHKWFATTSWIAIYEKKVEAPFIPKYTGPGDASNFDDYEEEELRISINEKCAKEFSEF
Chain of Protein kinase C beta type (P05771 whole entry): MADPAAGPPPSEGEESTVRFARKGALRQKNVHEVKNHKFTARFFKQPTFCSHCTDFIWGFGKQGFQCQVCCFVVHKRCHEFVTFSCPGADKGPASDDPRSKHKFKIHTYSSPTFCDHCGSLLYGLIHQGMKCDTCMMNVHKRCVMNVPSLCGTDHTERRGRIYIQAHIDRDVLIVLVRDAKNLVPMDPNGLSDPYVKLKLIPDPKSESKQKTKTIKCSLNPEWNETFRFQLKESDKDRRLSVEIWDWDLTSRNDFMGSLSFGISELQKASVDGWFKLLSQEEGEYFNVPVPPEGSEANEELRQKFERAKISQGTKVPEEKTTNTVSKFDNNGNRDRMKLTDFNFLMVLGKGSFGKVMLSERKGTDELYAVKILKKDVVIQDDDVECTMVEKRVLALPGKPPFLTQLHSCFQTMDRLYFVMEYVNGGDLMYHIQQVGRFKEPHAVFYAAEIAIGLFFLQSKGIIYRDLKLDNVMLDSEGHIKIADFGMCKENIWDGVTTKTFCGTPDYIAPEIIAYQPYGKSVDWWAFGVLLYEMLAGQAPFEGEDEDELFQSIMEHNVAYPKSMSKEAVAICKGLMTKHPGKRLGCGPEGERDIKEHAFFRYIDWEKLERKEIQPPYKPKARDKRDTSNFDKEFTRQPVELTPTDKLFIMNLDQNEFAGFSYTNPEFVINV

One may read the Kd as the equilibrium constant for the complex coming apart. Regarding `S=C(NCc1ccc2c(c1)OCO2)N1CCN(c2ncnc3c2oc2ccccc23)CC1` [AMUVATINIB], the Kd in experiment [1], in experiment [2], in experiment [3], in experiment [4] and in experiment [5] was > 30 µM (inactive) in each case.
For `O=c1[nH]c([C@@H]2CCCN2)nc2c1oc1ccc(Cl)cc12`, the Kd in experiment [1], in experiment [2], in experiment [3], in experiment [4] and in experiment [5] was > 30 µM (inactive) in each case.
For the compound `C[C@@]1(C(=O)Nc2ccc(F)nc2)CCCN1c1nc(Nc2cc(C3CC3)n[nH]2)c2cccn2n1` [BMS-754807], the Kd in experiment [1], in experiment [2], in experiment [5] and in experiment [6] was > 30 µM (inactive) each time.
Consider `COc1cc2ncnc(Nc3ccc(O)cc3)c2cc1OC` [WHI-P131], for which the Kd in experiment [1], in experiment [3], in experiment [4], in experiment [5] and in experiment [6] was > 30 µM (inactive) in each case.
Take `O=C(Nc1ccc(OC(F)(F)F)cc1)c1sccc1NCc1ccnc2ccccc12` [OSI-930]: the Kd in experiment [1], in experiment [2], in experiment [3], in experiment [4] and in experiment [5] was > 30 µM (inactive) each time.
Take `CN(c1ncccc1CNc1nc(Nc2ccc3c(c2)CC(=O)N3)ncc1C(F)(F)F)S(C)(=O)=O` [PF-00562271]: the Kd in experiment [1], in experiment [2], in experiment [4], in experiment [5] and in experiment [6] was > 30 µM (inactive) each time.
As to `N#CCNC(=O)c1ccc(-c2ccnc(Nc3ccc(N4CCOCC4)cc3)n2)cc1` [MOMELOTINIB], the Kd in experiment [1], in experiment [2], in experiment [3], in experiment [4] and in experiment [5] was > 30 µM (inactive) in each case.
`COc1cc2c(Oc3ccc4[nH]c(C)cc4c3F)ncnc2cc1OCCCN1CCCC1` [CEDIRANIB]: the Kd in experiment [1], in experiment [2] and in experiment [5] was > 30 µM (inactive) each time.
`CCN1CCN(Cc2ccc(Nc3ncc(F)c(-c4cc(F)c5nc(C)n(C(C)C)c5c4)n3)nc2)CC1` [ABEMACICLIB]: the Kd in experiment [1] was 1.62 µM (active); in experiment [3], 0.795 µM (active); in experiment [4] it was > 30 µM (inactive); in experiment [5], > 30 µM (inactive); in experiment [6] it was > 30 µM (inactive).
`Cn1cnc2c(F)c(Nc3ccc(Br)cc3Cl)c(C(=O)NOCCO)cc21` [SELUMETINIB]: the Kd in experiment [1], in experiment [2] and in experiment [5] was > 30 µM (inactive) in each case.
On to `COc1cc2c(N3CCN(C(=O)Nc4ccc(OC(C)C)cc4)CC3)ncnc2cc1OCCCN1CCCCC1` [TANDUTINIB], for which the Kd in experiment [1], in experiment [2], in experiment [5] and in experiment [6] was > 30 µM (inactive) each time.
With `C[C@@H]1COC(Nc2ccc3ncnc(Nc4ccc(OCc5nccs5)c(Cl)c4)c3c2)=N1` [VARLITINIB], the Kd in experiment [1], in experiment [3], in experiment [4], in experiment [5] and in experiment [6] was > 30 µM (inactive) in each case.
Regarding `CC1(C)CNc2cc(NC(=O)c3cccnc3NCc3ccncc3)ccc21` [MOTESANIB], the Kd in experiment [1], in experiment [2] and in experiment [5] was > 30 µM (inactive) throughout.
As for `Cn1c(=O)c(F)c(Nc2ccc(I)cc2F)c2c(=O)n(C[C@@H](O)CO)cnc21` [TAK-733], the Kd in experiment [1], in experiment [2], in experiment [3], in experiment [4] and in experiment [5] was > 30 µM (inactive) throughout.
As for `C#Cc1cccc(Nc2ncnc3cc4c(cc23)OCCOCCOCCO4)c1` [ICOTINIB], the Kd in experiment [1], in experiment [2], in experiment [3], in experiment [4] and in experiment [5] was > 30 µM (inactive) in each case.
On to `NC[C@@](O)(c1ccc(Cl)cc1)c1ccc(-c2cn[nH]c2)cc1` [AT-13148], for which the Kd in experiment [1] is > 30 µM (inactive); in experiment [2] it was > 30 µM (inactive); in experiment [3], 0.044 µM (active); in experiment [4] it was > 30 µM (inactive); in experiment [5], > 30 µM (inactive).
For `CN(C)C/C=C/C(=O)Nc1cc2c(Nc3ccc(F)c(Cl)c3)ncnc2cc1O[C@H]1CCOC1` [AFATINIB], the Kd in experiment [1], in experiment [2], in experiment [5] and in experiment [6] was > 30 µM (inactive) in each case.
`COc1cc2ncnc(Nc3ccc(F)c(Cl)c3)c2cc1NC(=O)/C=C/CN1CCCCC1` [DACOMITINIB ANHYDROUS]: the Kd in experiment [1], in experiment [2], in experiment [3], in experiment [4] and in experiment [5] was > 30 µM (inactive) throughout.
Consider `O=S(=O)(c1cccc2cnccc12)N1CCCNCC1` [FASUDIL], for which the Kd in experiment [1], in experiment [2], in experiment [4] and in experiment [5] was > 30 µM (inactive) throughout.
Take `Cc1ccc(C(=O)Nc2ccc(Oc3cc4cnn(C)c4cc3-c3cn[nH]c3)c(F)c2)c(=O)n1-c1ccc(F)cc1` [MERESTINIB]: the Kd in experiment [1], in experiment [2], in experiment [3], in experiment [4] and in experiment [5] was > 30 µM (inactive) throughout.
As to `C[C@]1(O)C[C@@H](c2nc(-c3ccc4ccc(-c5ccccc5)nc4c3)c3c(N)nccn32)C1` [LINSITINIB], the Kd in experiment [1], in experiment [2], in experiment [4], in experiment [5] and in experiment [6] was > 30 µM (inactive) throughout.
Turning to `CNC(=O)c1cccc(-c2ccc3c(N4CCOC[C@@H]4C)nc(N4CCOC[C@@H]4C)nc3n2)c1` [VISTUSERTIB], the Kd in experiment [1], in experiment [2], in experiment [3], in experiment [4] and in experiment [5] was > 30 µM (inactive) each time.
Regarding `CC1(COc2ccc3c(c2)ncn3-c2ccc3cccc(N4CCC(N)CC4)c3n2)COC1` [CRENOLANIB], the Kd in experiment [1], in experiment [2], in experiment [4], in experiment [5] and in experiment [6] was > 30 µM (inactive) each time.
